Data published in patent US20240083857A1, “2-Methyl-Quinazolines” (Bayer Pharma Aktiengesellschaft, priority 2017, published 2024).

How the values were obtained:
[1] = target: Epidermal Growth Factor Receptor (EGFR) (Homo sapiens (Human), UniProt P00533); assay: EGFR kinase assay (TR-FRET); format: biochemical; conditions: E-notation values; unit inferred; read-out: EGFR-assay IC50
Outline: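 Read-out is the 665/620 nm HTRF ratio, from a Tb-cryptate anti-phosphotyrosine antibody and streptavidin-XL665 bound to phosphorylated biotin-peptide substrate. The enzyme, A431-derived EGFR (~3 U/ml), was given 15 min compound pre-binding at 22° C in Hepes pH 7.0 with Mg2+/Mn2+ before reaction.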

[2] = target: human SOS1 (loading of human K-Ras^G12C-GDP with fluorescent GTP-analog) (Homo sapiens, UniProt Q07889); assay: Biochemical assay 3: K-Ras^G12C activation assay by hSOS1 (HTRF); conditions: E-notation values; unit inferred; read-out: Assay 3 (KRAS-Activation) IC50

Epidermal Growth Factor Receptor (EGFR), sequence (P00533 25-1210): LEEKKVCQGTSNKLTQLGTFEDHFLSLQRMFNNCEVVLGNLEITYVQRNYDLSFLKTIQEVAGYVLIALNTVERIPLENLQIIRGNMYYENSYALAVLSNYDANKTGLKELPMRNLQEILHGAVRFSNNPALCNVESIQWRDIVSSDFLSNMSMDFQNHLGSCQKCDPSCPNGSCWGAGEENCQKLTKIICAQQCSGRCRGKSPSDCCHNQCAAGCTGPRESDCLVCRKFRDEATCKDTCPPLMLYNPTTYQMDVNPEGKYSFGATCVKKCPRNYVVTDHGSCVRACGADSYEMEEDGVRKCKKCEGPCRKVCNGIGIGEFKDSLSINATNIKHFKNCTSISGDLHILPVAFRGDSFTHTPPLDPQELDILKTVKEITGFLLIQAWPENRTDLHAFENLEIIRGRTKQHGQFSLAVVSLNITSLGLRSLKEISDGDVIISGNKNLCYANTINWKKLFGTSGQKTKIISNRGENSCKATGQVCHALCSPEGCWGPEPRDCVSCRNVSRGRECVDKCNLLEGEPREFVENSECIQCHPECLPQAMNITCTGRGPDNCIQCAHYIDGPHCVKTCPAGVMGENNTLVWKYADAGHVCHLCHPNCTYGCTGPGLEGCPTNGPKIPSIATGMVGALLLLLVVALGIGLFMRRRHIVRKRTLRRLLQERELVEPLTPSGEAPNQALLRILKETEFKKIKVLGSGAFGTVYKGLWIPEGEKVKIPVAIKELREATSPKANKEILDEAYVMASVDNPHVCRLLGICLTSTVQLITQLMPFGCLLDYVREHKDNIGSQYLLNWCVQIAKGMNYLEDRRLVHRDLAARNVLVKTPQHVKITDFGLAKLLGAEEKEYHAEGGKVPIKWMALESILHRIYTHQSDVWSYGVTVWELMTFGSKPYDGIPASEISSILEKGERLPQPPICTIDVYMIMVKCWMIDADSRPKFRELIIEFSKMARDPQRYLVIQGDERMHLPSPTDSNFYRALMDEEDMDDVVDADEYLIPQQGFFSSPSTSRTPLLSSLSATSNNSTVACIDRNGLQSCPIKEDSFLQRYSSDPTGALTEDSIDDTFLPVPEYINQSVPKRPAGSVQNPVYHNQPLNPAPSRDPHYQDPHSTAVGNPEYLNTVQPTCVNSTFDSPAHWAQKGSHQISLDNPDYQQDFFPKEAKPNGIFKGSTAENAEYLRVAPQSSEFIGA

Row | SMILES | IC50 [1] [µM] | IC50 [2] [µM]
1 | COc1cc2nc(C)nc(NC(C)c3cc(C)c(-c4ccccc4CN(C)CCO)s3)c2cc1OC (stereo not shown) [Example 401, 2-{[2-(5-{1-[(6,7-dimethoxy-2-methylquinazolin-4-yl)amino]ethyl}-3-methyl-2-thienyl)benzyl](methyl)amino}ethanol] | > 20 | 0.0823
2 | CNCc1ccccc1-c1sc(C(C)Nc2nc(C)nc3cc(OC)c(OC)cc23)cc1C (stereo not shown) [Example 402, 6,7-di methoxy-2-methyl-N-[1-(4-methyl-5-{2-[(methylamino)methyl]phenyl}thiophen-2-yl)ethyl]quinazolin-4-amine] | > 20 | 0.0981
3 | COc1cc2nc(C)nc(NC(C)c3ccc(-c4ccccc4C(O)CO)s3)c2cc1OC (stereo not shown) [Example 403] | > 20 | 0.632
4 | Cc1ccc2nc(C)nc(N[C@H](C)c3cccc(Cl)c3)c2c1 [Example 404, N-[(1R)-1-(3-chlorophenyl)ethyl]-2,6-dimethylquinazolin-4-amine] | > 20 | 9.3
5 | Cc1nc(N[C@H](C)c2cccc(Cl)c2)c2cc(-c3cn[nH]c3)ccc2n1 [Example 405, N-[(1R)-1-(3-chlorophenyl)ethyl]-2-methyl-6-(1H-pyrazol-4-yl)quinazolin-4-amine] | > 20 | 1.31
6 | Cc1nc(N[C@H](C)c2cccc(Cl)c2)c2cc(-c3cnn(C)c3)ccc2n1 [Example 406, N-[(1R)-1-(3-chlorophenyl)ethyl]-2-methyl-6-(1-methyl-1H-pyrazol-4-yl)quinazolin-4-amine] | > 20 | 0.855
7 | Cc1nc(N[C@H](C)c2cccc(Cl)c2)c2cc(C3CC3)ccc2n1 [Example 407, N-[(1R)-1-(3-chlorophenyl)ethyl]-6-cyclopropyl-2-methylquinazolin-4-amine] | > 20 | 2.14
8 | COc1cc2nc(C)nc(NC(C)c3ccc(-c4c(Cl)cccc4CNC(=O)OC(C)(C)C)s3)c2cc1OC (stereo not shown) [Example 408, tert-butyl [3-chloro-2-(5-{1-[(6,7-dimethoxy-2-methylquinazolin-4-yl)amino]ethyl}thiophen-2-yl)benzyl]carbamate] | > 20 | 1.02
9 | COc1cc2nc(C)nc(NC(C)c3ccc(-c4c(Cl)cccc4CN)s3)c2cc1OC (stereo not shown) [Example 409, N-[1-{5-[2-(aminomethyl)-6-chlorophenyl]thiophen-2-yl}ethyl]-6,7-dimethoxy-2-methylquinazolin-4-amine] | > 20 | 0.0316
10 | COc1cc2nc(C)nc(NC(C)c3ccc(-c4ccnc(O)c4)s3)c2cc1OC (stereo not shown) [Example 410, 4-(5-{1-[(6,7-dimethoxy-2-methylquinazolin-4-yl)amino]ethyl}-2-thienyl)pyridin-2-ol] | > 20 | > 20
11 | COc1cc2nc(C)nc(NC(C)c3ccc(-c4ccccc4C4CC(=O)N4)s3)c2cc1OC (stereo not shown) [Example 411, 4-[2-(5-{1-[(6,7-dimethoxy-2-methylquinazolin-4-yl)amino]ethyl}thiophen-2-yl)phenyl]azetidin-2-one] | > 20 | > 20
12 | COc1cc2nc(C)nc(NC(C)c3ccc(-c4ccc(C#N)cc4CN(C)C)s3)c2cc1OC (stereo not shown) [Example 413, 4-(5-{1-[(6,7-dimethoxy-2-methylquinazolin-4-yl)amino]ethyl}thiophen-2-yl)-3-[(dimethylamino)methyl]benzonitrile] | > 20 | 0.213
13 | Cc1nc(NC(C)c2ccc(Br)s2)c2cc(N3CCC(N(C)C)C3)ccc2n1 (stereo not shown) [Example 414, N-[1-(5-bromothiophen-2-yl)ethyl]-6-[3-(dimethylamino)pyrrolidin-1-yl]-2-methylquinazolin-4-amine] | > 20 | 1.46
14 | Cc1nc(NC(C)c2ccc(Br)s2)c2cc(N3CCN(C)CC3)ccc2n1 (stereo not shown) [Example 416, N-[1-(5-bromothiophen-2-yl)ethyl]-2-methyl-6-(4-methylpiperazin-1-yl)quinazolin-4-amine] | > 20 | 1.14
15 | Cc1nc(NC(C)c2ccc(-c3ccccc3CN(C)C)s2)c2cc(N3CCN(C)CC3)ccc2n1 (stereo not shown) [Example 417, N-[1-(5-{2-[(dimethylamino)methyl]phenyl}thiophen-2-yl)ethyl]-2-methyl-6-(4-methylpiperazin-1-yl)quinazolin-4-amine] | > 20 | 0.0353
16 | Cc1nc(NC(C)c2ccc(-c3ccccc3CN(C)C)s2)c2cc(N3CCC(N(C)C)C3)ccc2n1 (stereo not shown) [Example 418, N-[1-(5-{2-[(dimethylamino)methyl]phenyl}thiophen-2-yl)ethyl]-6-[3-(dimethylamino)pyrrolidin-1-yl]-2-methylquinazolin-4-amine] | > 20 | 0.0451

Row | SMILES | IC50 [1] [µM] | IC50 [2] [µM]
17 | Cc1nc(NC(C)c2ccc(Br)s2)c2cc(N3CCCC3)ccc2n1 (stereo not shown) [Example 419, N-[1-(5-bromothiophen-2-yl)ethyl]-2-methyl-6-(pyrrolidin-1-yl)quinazolin-4-amine] | > 20 | 14.3
18 | CC(=O)Nc1ccc2nc(C)nc(NC(C)c3ccc(-c4ccccc4CN(C)C)s3)c2c1 (stereo not shown) [Example 420, N-(4-{[1-(5-{2-[(dimethylamino)methyl]phenyl}thiophen-2-yl)ethyl]amino}-2-methylquinazolin-6-yl)acetamide] | > 20 | 0.579
19 | COc1ccc(-c2ccc(C(C)Nc3nc(C)nc4cc(OC)c(OC)cc34)s2)c(C)c1 (stereo not shown) [Example 422, 6,7-dimethoxy-N-{1-[5-(4-methoxy-2-methylphenyl)thiophen-2-yl]ethyl}-2-methylquinazolin-4-amine] | > 20 | 3.6
20 | Cc1nc(NC(C)c2ccc(-c3ccccc3CN(C)C)s2)c2cc(N)ccc2n1 (stereo not shown) [Example 423, N4-[1-(5-{2-[(dimethylamino)methyl]phenyl}-2-thienyl)ethyl]-2-methylquinazoline-4,6-diamine] | > 20 | 0.303
21 | Cc1nc(NC(C)c2ccc(Br)s2)c2cc(N3CCN(Cc4cccnc4)CC3)ccc2n1 (stereo not shown) [Example 424, N-[1-(5-bromothiophen-2-yl)ethyl]-2-methyl-6-[4-(pyridin-3-ylmethyl)piperazin-1-yl]quinazolin-4-amine] | > 20 | 3.76
22 | Cc1nc(NC(C)c2ccc(Br)s2)c2cc(NCCN3CCOCC3)ccc2n1 (stereo not drawn) [Example 425, N4-[l-(5-bromo-2-thienyl)ethyl]-2-methyl-N6-[2-(morpholin-4-yl)ethyl]quinazoline-4,6-diamine] | > 20 | 11.2
23 | Cc1nc(NC(C)c2ccc(-c3ccccc3CN(C)C)s2)c2cc(N3CCN(Cc4cccnc4)CC3)ccc2n1 (stereo not shown) [Example 426, N-[1-(5-{2-[(dimethylamino)methyl]phenyl}thiophen-2-yl)ethyl]-2-methyl-6-[4-(pyridin-3-ylmethyl)piperazin-1-yl]quinazolin-4-amine] | 4.95 | 0.0315
24 | CC(=O)NCCNc1ccc2nc(C)nc(NC(C)c3ccc(-c4ccccc4CN(C)C)s3)c2c1 (stereo not shown) [Example 427, N-{2-[(4-{[1-(5-{2-[(dimethylamino)methyl]phenyl}thiophen-2-yl)ethyl]amino}-2-methylquinazolin-6-yl)amino]ethyl}acetamide] | > 20 | 0.0739
25 | COc1cc2nc(C)nc(NC(C)c3sc(Br)cc3Cl)c2cc1OC (stereo not shown) [Example 428, N-[1-(5-bromo-3-chlorothiophen-2-yl)ethyl]-6,7-dimethoxy-2-methylquinazolin-4-amine] | > 20 | 1.02
26 | COc1cc2nc(C)nc(NC(C)c3sc(-c4ccccc4CNC(=O)OC(C)(C)C)cc3Cl)c2cc1OC (stereo not shown) [Example 429, tert-butyl [2-(4-chloro-5-{1-[(6,7-dimethoxy-2-methylquinazolin-4-yl)amino]ethyl}thiophen-2-yl)benzyl]carbamate] | > 20 | 5.04
27 | COc1cc2nc(C)nc(NC(C)c3cc(Cl)c(-c4ccccc4CN)s3)c2cc1OC (stereo not shown) [Example 430, N-[1-{5-[2-(aminomethyl)phenyl]-4-chlorothiophen-2-yl}ethyl]-6,7-dimethoxy-2-methylquinazolin-4-amine] | > 20 | 0.584
28 | COc1cc2nc(C)nc(NC(C)c3cc(Cl)c(-c4ccccc4CN(C)C)s3)c2cc1OC (stereo not shown) [Example 431, N-[1-(4-chloro-5-{2-[(dimethylamino)methyl]phenyl}thiophen-2-yl)ethyl]-6,7-dimethoxy-2-methylquinazolin-4-amine] | > 20 | 0.302
29 | COc1cc2nc(C)nc(NC(C)c3cc(Cl)c(Br)s3)c2cc1OC (stereo not shown) [Example 432, N-[1-(5-bromo-4-chlorothiophen-2-yl)ethyl]-6,7-dimethoxy-2-methylquinazolin-4-amine] | > 20 | > 20
30 | Cc1nc(NC(C)c2ccc(-c3ccccc3CN(C)C)s2)c2cc(NCCN3CCOCC3)ccc2n1 (stereo not shown) [Example 433, N4-[1-(5-{2-[(dimethylamino)methyl]phenyl}-2-thienyl)ethyl]-2-methyl-N6-[2-(morpholin-4-yl)ethyl]quinazoline-4,6-diamine] | > 20 | 0.0769
31 | Cc1nc(NC(C)c2ccc(Br)s2)c2cc(N3CCN(C)C(=O)C3)ccc2n1 (stereo not shown) [Example 434, 4-(4-{[1-(5-bromothiophen-2-yl)ethyl]amino}-2-methylquinazolin-6-yl)-1-methylpiperazin-2-one] | 16.6 | 2.81
32 | Cc1nc(NC(C)c2ccc(-c3ccccc3CN(C)C)s2)c2cc(N3CCN(C)C(=O)C3)ccc2n1 (stereo not shown) [Example 435, 4-(4-{[1-(5-{2-[(dimethylamino)methyl]phenyl}thiophen-2-yl)ethyl]amino}-2-methylquinazolin-6-yl)-1-methylpiperazin-2-one] | > 20 | 0.0686
